Results: ChEMBL document CHEMBL1137661, “Interaction study of the combined use of paroxetine and fosamprenavir-ritonavir in healthy subjects” (Antimicrob Agents Chemother, 2007)
Blank lines part the entries; values can stand above or below the molecule they belong to.

What was measured:
[1] = test system: Homo sapiens; assay: Half life in human assessed as amprenavir levels at 700 mg, po bid for 10 days pretreated with paroxetin at 20 mg, po qd for 10 days followed by 16 days washout period then coadministered with paroxetin at 20 mg, po qd and ritonavir at 100 mg, po bid for 10 days; type: ADME, organism-based; conditions: in vivo
[2] = test system: Homo sapiens; assay: AUC (0 to 12 hrs) in human assessed as amprenavir levels at 700 mg, po bid for 10 days pretreated with paroxetin at 20 mg, po qd for 10 days followed by 16 days washout period then coadministered with paroxetin at 20 mg, po qd and ritonavir at 100 mg, po bid for 10 days; type: ADME, organism-based, Plasma; set-up: time < 12 hr, dose 700 mg, route oral; conditions: in vivo
[3] = test system: Homo sapiens; assay: Decrease in serotonin concentration in human platelets at 20 mg, po qd for 10 days followed by 16 days washout period and treated with 20 mg, po qd for 10 days coadministered with fosamprenavir at 700 mg, po bid and ritonavir at 100 mg, po bid relative to control; type: functional; set-up: scale not given: the % may be the effect or the level left
[4] = Apparent volume of distribution in human; type: ADME, organism-based; conditions: in vivo, read-out: Vz
[5] = Cmax in human at 20 mg, po qd for 10 days followed by 16 days washout period and treated with 20 mg, po qd for 10 days coadministered with fosamprenavir at 700 mg, po bid and ritonavir at 100 mg, po bid; type: ADME, organism-based; set-up: dose 20 mg, route oral; conditions: in vivo
[6] = Cmax in human at 20 mg, po qd for 10 days; type: ADME, organism-based; set-up: dose 20 mg, route oral; conditions: in vivo
[7] = test system: Homo sapiens; assay: Toxicity in human assessed as serious adverse events at 20 mg, po qd for 10 days followed by 16 days washout period and treated with 20 mg, po qd for 10 days coadministered with fosamprenavir at 700 mg, po bid and ritonavir at 100 mg, po bid; type: organism-based; conditions: in vivo
[8] = Half life in human at 20 mg, po qd for 10 days followed by 16 days washout period and treated with 20 mg, po qd for 10 days coadministered with fosamprenavir at 700 mg, po bid and ritonavir at 100 mg, po bid; type: ADME, organism-based; conditions: in vivo
[9] = AUC (0 to 24 hrs) in human at 20 mg, po qd for 10 days; type: ADME, organism-based; set-up: time < 24 hr, dose 20 mg, route oral; conditions: plasma
[10] = AUC (0 to 24 hrs) in human at 20 mg, po qd for 10 days followed by 16 days washout period and treated with 20 mg, po qd for 10 days coadministered with fosamprenavir at 700 mg, po bid and ritonavir at 100 mg, po bid; type: ADME, organism-based; set-up: dose 20 mg, time < 24 hr, route oral; conditions: plasma
[11] = test system: Homo sapiens; assay: Toxicity in human assessed as serious adverse events at 20 mg, po qd for 10 days; type: organism-based; conditions: in vivo, 240 h
[12] = Apparent oral clearance in human at 20 mg, po qd for 10 days; type: ADME, organism-based; conditions: in vivo
[13] = test system: Homo sapiens; assay: Decrease in serotonin concentration in human platelets at 20 mg, po qd for 10 days relative to control; type: functional; set-up: scale not given: the % may be the effect or the level left
[14] = Half life in human at 20 mg, po qd for 10 days; type: ADME, organism-based; conditions: in vivo
[15] = clinical; conditions: human, in vivo, po
Description: Half life in human at 100 mg, po bid for 10 days pretreated with paroxetin at 20 mg, po qd for 10 days followed by 16 days washout period then coadministered with paroxetin at 20 mg, po qd and fosamprenavir at 700 mg, po bid for 10 days

[16] = AUC (0 to 12 hrs) in human at 100 mg, po bid for 10 days pretreated with paroxetin at 20 mg, po qd for 10 days followed by 16 days washout period then coadministered with paroxetin at 20 mg, po qd and fosamprenavir at 700 mg, po bid for 10 days; type: ADME, organism-based; set-up: time < 12 hr, dose 100 mg, route oral; conditions: plasma

t1/2 [1]: 11.5 h
AUC [2]: 44.1 µg·h/mL
Compound: CC(C)CN(C[C@@H](O)[C@H](Cc1ccccc1)NC(=O)O[C@H]1CCOC1)S(=O)(=O)c1ccc(N)cc1 [AMPRENAVIR]

Compound: Fc1ccc([C@@H]2CCNC[C@H]2COc2ccc3c(c2)OCO3)cc1 [PAROXETINE]
Activity [3]: 81%
Vd [4]: 8.7 L/kg
Cmax [5]: 0.017 µg/mL
Cmax [6]: 0.034 µg/mL
Activity [7]: Non-toxic
half-life [8]: 15.9 h
AUC at 24 h [9]: 0.59 µg·h/mL
AUC at 24 h [10]: 0.27 µg·h/mL
Activity [11]: Non-toxic
CL/F [12]: 552 mL/min
Activity [13]: 87%
half-life [14]: 21.1 h

half-life [15]: 4.1 h
AUC at 12 h [16]: 5.1 µg·h/mL
Compound: CC(C)c1nc(CN(C)C(=O)N[C@H](C(=O)N[C@@H](Cc2ccccc2)C[C@H](O)[C@H](Cc2ccccc2)NC(=O)OCc2cncs2)C(C)C)cs1 [RITONAVIR]
